From patent US20050209336A1, “EP2 receptor agonists” (priority 2003, published 2005) come the findings set out here.

Where two headings read alike, the source gives them in different places.

The target in one experiment is T1, human EP4 receptor (Homo sapiens, UniProt P35408).
T1 construct: expressed in transfected cells
Description: Radioligand ([3H]PGE2) competition displacement binding, human EP4 receptor membranes. Particulars: [3H]PGE2 displacement, read-out: pKi EP4 (converted). On the procedure:
(§1) Membranes were prepared from cells stably transfected with human EP receptor cDNA. In brief, cells were cultured to confluency, scraped from culture flasks, and centrifuged (800 g, 8 minutes, 4° C.). Cells were twice washed in ice cold homogenisation buffer containing 10 mMTris-HCl, 1 mM EDTA.2Na, 250 mM sucrose, 1 mM PMSF, 0.3 mM indomethacin, pH 7.4, homogenised and re-centrifuged as before. The supernatant was stored on ice and pellets re-homogenised and re-spun. Supernatants were pooled and centrifuged at 40000 g, 10 minutes, 4° C. Resultant membrane pellets were stored at −80° C. until use.
(§2) For assay, membranes expressing human EP4, EP3, EP2 or EP1 receptors were incubated in Millipore (MHVBN45) plates containing assay buffer, radiolabelled [^3H]PGE2 and 0.1 to 10 000 nM concentrations of compounds. Incubations were performed at suitable temperatures and for suitable times to allow equilibrium to be reached. Non-specific binding was determined in the presence of 10 uM PGE2. Bound and free radiolabel was separated by vacuum manifold filtration using appropriate wash buffers, and bound radiolabel was determined by scintillation counting. Constituents of each of the buffers are included in table 4 below.
(§3) The affinity or pKi of each compound for each receptor was calculated from the concentration causing 50% radioligand displacement (IC50) using the Cheng-Prusoff equation: [formula]
(§4) This approach follows that set out in Kenakin, T. P., Pharmacologic analysis of drug receptor interaction. Raven Press, New York, 2nd edition.

A further experiment concerns the target T2, human EP3 receptor (Homo sapiens, UniProt P43115).
T2 construct: expressed in transfected cells
T2 sequence (P43115 1-390): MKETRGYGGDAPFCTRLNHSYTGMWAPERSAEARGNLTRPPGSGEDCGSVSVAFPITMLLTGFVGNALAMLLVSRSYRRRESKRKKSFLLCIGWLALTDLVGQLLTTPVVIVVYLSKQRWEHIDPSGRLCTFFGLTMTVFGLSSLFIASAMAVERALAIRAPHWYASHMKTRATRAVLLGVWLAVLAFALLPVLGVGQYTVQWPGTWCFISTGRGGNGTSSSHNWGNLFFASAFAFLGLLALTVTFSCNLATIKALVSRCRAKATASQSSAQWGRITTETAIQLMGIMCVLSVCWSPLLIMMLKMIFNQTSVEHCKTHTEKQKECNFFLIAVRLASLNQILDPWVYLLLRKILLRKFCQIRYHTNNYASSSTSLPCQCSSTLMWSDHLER
Kind of experiment: Radioligand ([3H]PGE2) competition displacement binding, human EP3 receptor membranes. The note with it: [3H]PGE2 displacement, read-out: pKi EP3 (converted). On the procedure: as §1, §2, §3, §4

For experiment [1], the target named is T3, human EP2 receptor (Homo sapiens, UniProt P43116).
T3 construct: expressed in transfected cells; host or cells: HEK cells (HEK-EP2)
T3 sequence (P43116 whole entry): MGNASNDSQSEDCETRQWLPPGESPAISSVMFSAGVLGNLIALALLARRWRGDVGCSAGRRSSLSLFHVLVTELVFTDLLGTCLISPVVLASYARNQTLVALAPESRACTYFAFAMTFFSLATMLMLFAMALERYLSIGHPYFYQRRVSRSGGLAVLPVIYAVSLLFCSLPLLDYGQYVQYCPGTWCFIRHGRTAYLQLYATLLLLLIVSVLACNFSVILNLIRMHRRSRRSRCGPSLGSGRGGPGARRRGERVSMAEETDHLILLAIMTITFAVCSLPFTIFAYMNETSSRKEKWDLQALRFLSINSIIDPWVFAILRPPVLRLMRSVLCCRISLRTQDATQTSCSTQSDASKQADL
Kind of experiment: cAMP production in HEK cells stably expressing the human EP2 receptor. The note with it: 15 min stimulation, 4 experiments, read-out: Mean EC50. Type of experiment: cell-based. On the procedure:
The following describes an in vitro assay to determine the effect of compounds on cyclase production, that is, to determine their functional efficacy at the EP2 receptor.
HEK cells stably expressing the human EP2 receptor were used for these assays. HEK-EP2 cells were cultured in 96-well, poly-L-lysine coated plates at a density of 50,000 cells/well, and grown to confluence in humidified […] at 37° C. Culture medium was DMEM supplemented with 10% foetal bovine serum, 100 U/ml penicillin, […], 2.5 µg/ml fungizone, 2 mM glutamine, 250 µg/ml geneticin and 200 µg/ml zeocin.
On reaching confluence, culture media was rinsed off using DMEM with no additions, before 175 µl assay buffer (DMEM containing 1 mM 3-isobutyl-1-methylxanthine and 3 µM indomethacin) was added to each well. This was allowed to incubate for 1 hr before the cells were stimulated with the test compounds (in triplicate) at final concentrations of 10^−9M to 10^−5M for 15 minutes. The assay was terminated by the addition of 25 µl 1M hydrochloric acid. Plates were then frozen for a minimum of 12 hours or until required for radioligand displacement assay.
Plates were thawed quickly at 37° C., and neutralised with 25 µl 1M sodium hydroxide. 30 µl of supernatant was transferred to 96-well Millipore (MAFNOB) plates coated with 0.1% Polyethylenimine. These supernatants were diluted by addition of 90[…]1 cAMP assay buffer (50 mM Tris, 5 mM EDTA, pH 7.0). A cAMP standard curve (10^−11M to 10^−5M) was constructed. 15 µl of 3′:5′-cAMP-dependent protein kinase (final concentration 8 µg/well), and 15 µl [^3H]-cAMP (final concentration 2 nM/well) were added to each well.
Plates were incubated on ice for 2 hours, before bound and free radiolabel were separated by vacuum filtration harvesting on the Millipore manifold, using ice cold water as the termination buffer. Filter plates were allowed to dry overnight, before addition of 50 µl Microscint. Radioactivity was determined using the Microbeta Trilux scintillation counter. cAMP accumulation was determined from the standard curve, and the values plotted as pmoles cAMP/well.

Experiment [2] has as its target T3, human EP2 receptor. Description: Radioligand ([3H]PGE2) competition displacement binding, human EP2 receptor membranes. The note with it: human EP2 membranes, [3H]PGE2 displacement, Cheng-Prusoff; mean of 4 experiments; read-out: pKi EP2 (converted). On the procedure: as §1, §2, §3, §4
Experiment [3] concerns TNFα production by lymphocytes. Description: Lymphocyte assay: TNFα production. Type of experiment: cell-based, human. The note with it: inhibition of TNFα production by lymphocytes, mean of three donors; for EC50: read-out: Mean EC50; for Mean Log (EC50): log scale. The source says: (§5) Lymphocytes are mononuclear leukocytes, which participate in specific immune responses to foreign antigens and in the manifestation of auto-immune diseases. T lymphocytes produce IL-2, a key factor for lymphocyte activation and proliferation, in response to antigen stimulation via the CD3-T cell receptor complex and the pathway involved in this response is the NF-AT. […] A lymphocyte assay was designed to model this response and to determine the effect of test compound on IL-2 production by anti-CD3-stimulated T cells isolated from peripheral blood. This assay uses a sub-optimal dose of an anti-CD3 monoclonal antibody (OKT3, 25 ng/ml) immobilised to a 96-well plate to stimulate a T cell response. The level of IL-2 released into the cell culture supernatants was quantified using a standard sandwich ELISA. Similarly, other cytokines such as TNFα and IFN-γ can also be measured in the same assay.
(§6) Human peripheral blood mononuclear cells from healthy volunteers were isolated from whole blood by Ficoll-Hypaque density centrifugation and adherence to plastic. The non-adherent lymphocyte fraction was used to set up the lymphocyte assay and the adherent monocytes were then recovered by scraping and subsequently used in the monocyte assay.
(§7) Lymphocytes were then seeded to a 96-well plate pre-coated with anti-CD3 monoclonal antibody (OKT3) at 25 ng/ml and immediately, the test compounds (Peak 1, mixture 1 acid; Peak 1, mixture 2 acid; AH-13205 racemate; PGE2) in appropriate dilutions were added to corresponding wells according to the experimental design. The plate was incubated for 24 hours at 37° C. with 5% CO2 in air and supernatants were recovered for ELISA analysis at the end of incubation period. The levels of IFN-γ was assessed by using the ProteoPlex 16 well human cytokine array assay kit according to the manufacturer's instruction.

The test system of a further experiment is lymphocyte proliferation. Description: Lymphocyte proliferation driven by immobilised anti-CD3 antibody. Type of experiment: cell-based, human. The note with it: inhibition of lymphocyte proliferation, 72 h, mean of three donors; for EC50: read-out: Mean EC50; for Mean Log (EC50): log scale.
Text: as §5, §6
For the measurement of lymphocyte proliferation driven by immobilised anti-CD3 monoclonal antibody, the assay was set up in the same way as for the measurement of IL-2 release, except that the cells were cultured for 72 hours in the presence or absence of test compounds. Four hours prior to the termination of the proliferation assay, a novel tetrazolium compound solution supplied by Promega in the format of Cell Proliferation Assay Kit was added to individual wells according to the manufacturer's instruction. The plate was then placed back in the incubator for the remaining 4 hours and the […] reaction was measured using a spectrophotometer at an absorbent wavelength of 490 nm (SpectraMax, Molecular Devices) according to the manufacturer's instruction.

The test system of experiment [4] is IL-2 production by OKT3 activated T cells. Description: Lymphocyte assay: IL-2 production by anti-CD3 (OKT3) stimulated T cells. Type of experiment: cell-based, human. The note with it: inhibition of IL-2 production, 24 h; for EC50: read-out: Mean EC50; for Mean Log (EC50): log scale.
Text: as §5, §6, §7

Experiment [5] deals with TNFα production by alveolar macrophages. Kind of experiment: Alveolar macrophage assay: LPS-induced TNFα release. Type of experiment: cell-based, human. The note with it: inhibition of TNFα production, LPS 1 μg/ml, 24 h, mean of three donors. As to the method:
Human lung parenchyma was cut into small pieces and perfused with ice-cold phosphate buffered saline (PBS) to remove contaminating blood and mucus. The tissues were then chopped with scissors in the presence of Minimum Essential Medium supplemented with penicillin, streptomycin, L-glutamine and DNase (0.25 mg/ml). The chopped tissues were shaken gently to dislodge the macrophages. A crude cell suspension was then obtained by the removal of the tissues with a sterile filter (150 μm pore size). The resulting cell suspension was spun and the cell pellet collected. Contaminating red blood cells were depleted with a red blood cell lysis buffer and the remaining cells washed twice with PBS by centrifugation. Alveolar macrophages were then purified from this cell preparation by using a positive selection method for CD14-molecule bearing cells using a VarioMac™ Separator and respective positive selection reagents and columns supplied by Miltenyi Biotec Ltd according to the manufacturer's instruction.
For the assay, alveolar macrophages were resuspended in complete culture medium consisting of RPMI1640 supplemented with 10% foetal calf serum, L-glutamine and antibiotics. The cells were then plated into 24 well plates (4×10^5 cell/well) and incubated overnight at 37° C. with 5% CO2 in air to allow cell adherence. The exhausted medium was then removed from the plates and the plates rinsed briefly with fresh medium before the addition of test compound solutions. The test compounds were incubated with the cells for 30 minutes before the addition of E. Coli LPS (1 μg/ml). The assay plates were incubated in a humidified incubator at 37° C. with 5% CO2 in air for 24 hours. The release of TNFα by the cells into the culture supernatants was quantified using an ELISA kit (DuoSet® human TNFα ELSIA Development System) supplied by R+D Systems (Europe) according to the manufacturer's instruction. Indomethacin at 3 μM was included in all treatments to inhibit the possible release of endogenous prostaglandin E2.

In experiment [6] the test system is human myometrial smooth muscle. Description: Human myometrial activity: inhibition of electrical field stimulation (EFS) induced contractions. The format is cell-based. The note with it: at 10^-4M, n=7 donors. On the procedure: The following describes an in vitro functional assay, using human myometrial smooth muscle, to determine the affinity of the test compounds at the EP2 receptor in human tissues.
Sections of human myometrium were prepared from samples of surgically removed uterus longitudinal myometrial muscle strips (2 mm wide by 10 mm long) were then cut and suspended between stainless steel hooks in organ chambers containing oxygenated (95% O2/5% CO2) Krebs solution at 37° C. The composition of the Krebs solution was as follows: NaCl (118.2 mM), KCl (4.69 mM), MgSO4.7H2O (1.18 mM), KH2PO4 (1.19 mM), glucose (11.1 mM), NaHCO3 (25.0 mM), CaCl2.6H2O (2.5 mM), indomethacin 3×10^−6M.
Tissues were placed under a tension equivalent to 25 mN and left overnight at room temperature. The following day the tissues were maintained at 37° C., washed and placed under a tension of 15 mN then allowed to equilibrate for a period of at least 30 minutes. Responses were recorded using isometric transducers coupled to an Apple Macintosh computer via a MacLab interface. After 60 minutes, the muscle sections of the human myometrium were stimulated electrically (15 ms pulse width, for 10 s every 100 s at 15V and 0.5-40 Hz) using parallel platinum wire electrodes and a Multistim D330 pulse stimulator. Upon electrical stimulation, the strips of human myometrial smooth muscle responded with a rapid contraction. Once the response to electrical stimulation had stabilised (stimulated responses differed by no more than 10%), the strips were exposed to increasing concentrations of test compounds (1×10^−7 to 1×10^−4M, incubated for at least 15 minutes at each concentration). At the end of the experiment, application of sodium nitroprusside (SNP, a nitric oxide donor that causes smooth muscle relaxation) (1×10^−4M) was used to produce a standard relaxatory response. To determine the affinity of the compounds, the concentration of test compound required to produce half-maximal effects (EC50) was calculated, as was the maximum response (calculated as a percentage of the standard response produced with SNP).

Setting [7] is: mean of four donors (FIG. 9, table 7).
The mark [8] stands for this setting: mean of three to five donors (FIG. 10, table 8).

T1 sequence (P35408 whole entry): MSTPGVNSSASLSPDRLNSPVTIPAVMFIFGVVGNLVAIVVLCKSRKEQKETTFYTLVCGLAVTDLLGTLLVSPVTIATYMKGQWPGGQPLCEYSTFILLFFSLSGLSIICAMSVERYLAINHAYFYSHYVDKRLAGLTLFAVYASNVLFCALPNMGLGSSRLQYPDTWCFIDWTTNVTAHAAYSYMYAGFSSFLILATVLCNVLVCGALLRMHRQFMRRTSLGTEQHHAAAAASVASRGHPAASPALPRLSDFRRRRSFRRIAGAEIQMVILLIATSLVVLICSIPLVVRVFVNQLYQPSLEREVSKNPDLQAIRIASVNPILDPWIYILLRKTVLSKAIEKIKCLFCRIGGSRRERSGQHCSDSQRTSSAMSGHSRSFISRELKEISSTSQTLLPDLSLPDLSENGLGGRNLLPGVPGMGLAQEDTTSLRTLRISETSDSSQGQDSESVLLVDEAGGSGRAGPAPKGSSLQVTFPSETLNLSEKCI

As for `CCCCC[C@H](O)c1ccc([C@@H]2CCC(=O)[C@H]2CCCCCCC(=O)O)cc1` (single isomer, unassigned) [Peak 2, Mixture 1 acid], the results for the Ki on human EP4 receptor, at human EP3 receptor and at human EP2 receptor [2] were 31.6 µM, 15.8 µM and 1580 nM, respectively. In addition, the EC50 on human EP2 receptor [1] is 323 nM.
In the case of `CCCCC[C@@H](O)c1ccc([C@@H]2CCC(=O)[C@H]2CCCCCCC(=O)O)cc1` (single isomer, unassigned) [Peak 2, Mixture 2 acid], the Ki on human EP4 receptor is 15.8 µM; on human EP3 receptor it was 20 µM; on human EP2 receptor [2], 501 nM. In addition, the EC50 on human EP2 receptor [1] is 407 nM.
In the case of `CCCCC[C@H](O)/C=C/[C@H]1[C@H](O)CC(=O)[C@@H]1C/C=C\CCCC(=O)O` [PGE2, prostaglandin E2], the EC50 in [3] was 10.7 nM; in the experiment with lymphocyte proliferation it was 25.8 nM; in [4] (setting [7]), 28 nM; in [4] (setting [8]) it was 21.1 nM; in experiment [5] (read-out: Mean EC50), 125 nM. The “Mean Log (EC50)” value in [3] is listed as −7.971; in the experiment on lymphocyte proliferation it was −7.589; in experiment [4] (setting [7]), −7.554; in [4] (setting [8]) it was −7.677; in experiment [5] (log scale), −6.904.
As to `CC(C)(C)NCC(O)c1cc(O)cc(O)c1` (stereo not shown) [terbutaline, reference compound], the “% of the control EFS-induced contraction” value in experiment [6] is given as 98±5%.
For the molecule butaprost, the values for the EC50 (in [3]; in the experiment with lymphocyte proliferation; in experiment [4] (setting [8])) were 292 nM, 996 nM and 124 nM, respectively. Also, the results for the “Mean Log (EC50)” value (in experiment [3]; in the experiment on lymphocyte proliferation; in experiment [4] (setting [8])) were −6.535, −6.015 and −6.906, respectively.

The EC50 is the concentration needed to bring the measured effect to its halfway point.
